Consider three compounds from article PMC10379611 (International Journal of Molecular Sciences, 2023).

Each structure is given as a SMILES string. Read-outs that look alike come from different tables or passages of the source.

One data set has as its target T1, OATP1B3 (Homo sapiens, UniProt Q9NPD5).
T1 sequence (Q9NPD5 1-702): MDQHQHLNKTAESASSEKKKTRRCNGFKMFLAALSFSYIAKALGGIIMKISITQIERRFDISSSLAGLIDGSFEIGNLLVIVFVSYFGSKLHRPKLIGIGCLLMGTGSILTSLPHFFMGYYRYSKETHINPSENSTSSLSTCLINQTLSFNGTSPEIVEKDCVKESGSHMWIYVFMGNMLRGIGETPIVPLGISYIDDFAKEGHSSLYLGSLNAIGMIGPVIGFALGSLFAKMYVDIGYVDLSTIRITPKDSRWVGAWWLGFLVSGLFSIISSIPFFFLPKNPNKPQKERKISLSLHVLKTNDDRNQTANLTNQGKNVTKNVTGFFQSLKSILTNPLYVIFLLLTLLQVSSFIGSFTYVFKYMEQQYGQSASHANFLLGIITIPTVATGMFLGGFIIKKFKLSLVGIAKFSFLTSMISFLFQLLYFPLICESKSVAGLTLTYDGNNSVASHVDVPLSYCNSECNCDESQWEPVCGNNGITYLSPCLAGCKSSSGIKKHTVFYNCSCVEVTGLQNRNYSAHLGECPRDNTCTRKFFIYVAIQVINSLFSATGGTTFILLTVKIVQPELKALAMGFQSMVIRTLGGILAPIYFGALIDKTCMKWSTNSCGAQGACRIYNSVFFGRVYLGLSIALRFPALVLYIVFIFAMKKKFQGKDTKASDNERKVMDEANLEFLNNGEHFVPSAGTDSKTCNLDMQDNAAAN
In words: OATP1B3 uptake assay (pyranine) in overexpressing A431 cells.

In the next data set the target is T2, OATP1A2 (Homo sapiens, UniProt P46721).
T2 sequence (P46721 1-670): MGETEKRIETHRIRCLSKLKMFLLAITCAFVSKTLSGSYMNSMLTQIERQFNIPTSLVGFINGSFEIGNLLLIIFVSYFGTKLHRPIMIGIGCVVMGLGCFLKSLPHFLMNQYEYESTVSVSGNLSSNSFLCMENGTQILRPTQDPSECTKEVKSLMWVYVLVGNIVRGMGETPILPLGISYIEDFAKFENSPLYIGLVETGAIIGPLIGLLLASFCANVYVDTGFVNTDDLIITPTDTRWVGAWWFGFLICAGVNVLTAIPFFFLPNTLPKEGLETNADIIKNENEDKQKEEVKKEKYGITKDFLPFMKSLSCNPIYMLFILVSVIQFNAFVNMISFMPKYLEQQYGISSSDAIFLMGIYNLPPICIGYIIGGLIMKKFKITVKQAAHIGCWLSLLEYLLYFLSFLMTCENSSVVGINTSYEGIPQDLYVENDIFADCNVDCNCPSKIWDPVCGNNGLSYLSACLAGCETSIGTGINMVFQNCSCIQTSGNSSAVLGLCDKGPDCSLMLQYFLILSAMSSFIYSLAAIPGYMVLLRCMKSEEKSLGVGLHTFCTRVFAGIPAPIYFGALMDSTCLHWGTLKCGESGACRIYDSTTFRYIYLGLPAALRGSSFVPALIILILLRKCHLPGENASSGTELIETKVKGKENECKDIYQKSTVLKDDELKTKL
In words: OATP1A2 uptake assay (SR101) in overexpressing A431 cells. The method, then:
To study the function of OATPs, we used A431 cells overexpressing OATP1A2, OATP1B1, OATP1B3, or OATP2B1 and mock-transfected A431 cells, generated as previously described, as controls. The interactions between OATPs and the test compounds were studied in a microplate-based indirect assay by employing fluorescent dye substrates: pyranine for OATP1B1, OATP1B3, OATP2B1 and sulforhodamine 101 for OATP1A2 [44, 45]. Briefly, OATP-overexpressing A431 cells and mock-transfected A431 cells were seeded on 96-well plates (8 × 10^4 cells/well). The next day, the cells were washed three times with phosphate buffered saline (PBS, pH 7.4) and preincubated with 50 μL uptake buffer (125 mM NaCl, 4.8 mM KCl, 1.2 mM CaCl2, 1.2 mM KH2PO4, 12 mM MgSO4, 25 mM MES (2-(Nmorpholino) ethanesulfonic acid, and 5.6 mM glucose, pH 5.5 for OATP2B1 and pH 7.4 for OATP1A2, OATP1B1, or OATP1B3) at 37 °C for 5 min in the presence or absence of the tested compounds. The reaction was started by the addition of a final concentration of 20 μM pyranine (OATP1B1, OATP1B3, OATP2B1) or 0.5 μM sulforhodamine 101 (OATP1A2). After incubation at 37 °C for 10 min, the reactions were stopped and the cells were washed three times with ice-cold PBS. Fluorescence was measured using an Enspire plate reader (Perkin Elmer, Waltham, MA, USA) (Ex/Em: 460/510 nm (pyranine) or 586/605 nm (sulforhodamine 101), and OATP-dependent transport activity was determined by subtracting the fluorescence measured in mock-transfected cells.

By IC50 is commonly meant the concentration needed to halve the response being measured. For the compound `O=c1nc(NO)ccn1[C@@H]1O[C@H](CO)[C@@H](O)[C@H]1O` [EIDD-1931], the “maximum inhibition of OATP1B3” value at OATP1B3 (at 200 μM, pyranine) was 20–40%. Further, the IC50 on OATP1B3 (read-out: estimated IC50, OATP1B3, pyranine substrate, A431 cells) was above 200 µM; on OATP1A2 (read-out: estimated IC50, OATP1A2, SR101 substrate, A431 cells) it was above 200 µM. Moreover, the “maximum inhibition of OATP1A2” value at OATP1A2 (at 200 μM, SR101) is listed as 20–40%.
By inhibition is commonly meant the percentage by which the read-out fell short of the control. Low values mean a weak effect, high ones a strong effect. Regarding `CC(C)C(=O)OC[C@H]1O[C@@H](n2ccc(NO)nc2=O)[C@H](O)[C@@H]1O` [EIDD-2801, Molnupiravir], the IC50 at OATP1B3 and against OATP1A2 was above 200 µM each time. In addition, the inhibition at 10 min, 200 µM at OATP1B3 (human, A431 cells overexpressing OATP1B3, pH 7.4, probe pyranine (20 μM)) lay in the range of 20 to 40%; on OATP1A2 (human, A431 cells overexpressing OATP1A2, pH 7.4, probe sulforhodamine 101 (0.5 μM)) it was 20 to 40%.
Turning to `CC(C)(C)[C@H](NC(=O)C(F)(F)F)C(=O)N1C[C@H]2[C@@H]([C@H]1C(=O)N[C@H](C#N)C[C@@H]1CCNC1=O)C2(C)C` [Nirmatrelvir], the “inhibition of OATP1B3 by Nirmatrelvir alone” value against OATP1B3 (at 20 μM) is recorded as “only a minor inhibitory effect”. Besides, the “inhibition of OATP1A2 by Nirmatrelvir alone” value against OATP1A2 (at 20 μM) is reported as “only a minor inhibitory effect”. The compound also returned an IC50 at 10 min at OATP1A2 (human, pH 7.4) of 79.5 µM.
